Tests used:
[1] = test system: NO production in LPS-stimulated BV2 cells; assay: Inhibition of NO production in LPS-stimulated BV2 cells (Griess reagent); details: Mus musculus; for inhibition at 20 µM: BV-2, read-out: NO Inhibitory Activity % Inhibition (20 μM); for IC50: BV-2, read-out: NO Inhibitory Activity IC50
Experimental: To evaluate the anti-inflammatory effect, all compounds were screened on an LPS-stimulated BV2 model to determine the inhibitory effects against NO production [21].
The BV-2 mouse microglia cell line was purchased from the Cell Bank of Shanghai Institute of Biochemistry and Cell Biology, Chinese Academy of Sciences (Shanghai, China), and was cultured in Dulbecco’s modified Eagle medium (DMEM, Gibco Invitrogen Corp., Suzhou, China) supplemented with 10% fetal bovine serum (FBS), 100 units/mL penicillin, and 100 mg/mL streptomycin. The cells were placed at 37 °C in a humidified incubator containing 5% CO2.
The inhibitory activity of the isolated compounds toward NO production was determined using the Griess reagent system (Beyotime). Cells were cultured in each well of 96-well plates at a density of 5 × 10^4 cells/well with 100 mL of DMEM for 24 h. Test samples dissolved in DMSO and diluted with DMEM were added, as well as 2 mg/mL LPS as a stimulus. The final drug concentration was 50 μM with 1% DMSO. Wells treated with only LPS served as model controls, and wells treated with neither LPS nor test samples served as blank controls (all contained 1% DMSO). After 24 h incubation, half of the medium (50 mL) in each well was harvested.

[2] = Cytotoxic effect in BV-2 cells, Cell Counting Kit-8 (CCK-8) assay; assay type: cell-based; details: mouse, BV-2 microglia cells
Experimental: Cells were pretreated with or without compounds for 2 h and then induced with 40 μg/mL LPS for another 48 h. […] The absorbance was then measured at a wavelength of 450 nm with a microplate reader (Thermo Fisher Scientific, Marietta, OH, USA). The cell proliferation was expressed as a ratio of control.

IC50 [1] [µM]	Structure (SMILES)	inhibition at 20 µM [1] [%]	CC50 at 50 h [2] [µM]
27 ± 0.6	CC1=CC(=O)C=C(C)CC2OC(=O)C(C)=C3CCC(C)(CC1)C32 (stereo not shown) [Compound 3, Clavirolide Y]	42.7 ± 3.5	> 50
	CC1=C2C(O)CC3(C)CCC(C)CC(=O)CC(C)CC(OC1=O)C23 (stereo not shown) [Compound 1, Clavirolide W]	15.1 ± 2.4	> 50
	CC1=CCC2(C)CCC3=C(C)C(=O)OC(CC(C)CC(=O)C1)C32OO (stereo not shown) [Compound 4, Clavirolide Z]	29 ± 2.8	> 50
	CC1=CC(=O)CC(C)=CC(O)C2C(C(C)(C)OO)=CCC2(C)CC1 (stereo not shown) [Compound 6, clavularol B]	14.6 ± 1.2	> 50
	C=C1CC[C@@H]2O[C@@]2(C)C[C@@H](O)C2=C(C(C)(C)O)CC[C@@]2(C)CC1 [Compound 8, Clavularol D]	35.9 ± 4.2	> 50
20.3 ± 0.3	C=C1CCC(O)C(C)=CC2OC(C)(C)C3=C2C(C)(CC1)CC3 (stereo not shown) [Compound 12, Clavularol H]	48.8 ± 4.2	> 50
20.3 ± 0.3	C=C1CCC=C(C)CC(O)C2C(C(C)(C)O)=CCC2(C)CC1 (stereo not shown) [Compound 13, clavularinlide E]	45.6 ± 3.5	> 50
	C=C1CC[C@H]2O[C@]2(C)C[C@@H](O)[C@H]2[C@](C)(CC1)CC[C@@]2(O)C(=C)C [Compound 11, Clavularol G]	18.4 ± 2.8	> 50
	C=C1CCC=C(C)CC(O)C2C(C)(CC1)CC1OC12C(C)(C)O (stereo not shown) [Compound 7, clavularol C]	24 ± 3.8	> 50
	CC1=C2CCC3(C)CCC(C)CC(=O)CC(C)CC(OC1=O)C23OO (stereo not shown) [Compound 2, Clavirolide X]	36.4 ± 1.7	> 50
18.3 ± 0.6	C=C1CC[C@@H]2O[C@@]2(C)C[C@@H](O)[C@@H]2C(C(C)(C)O)=CC[C@@]2(C)CC1 [Compound 10, clavularol F]	68.9 ± 3.6	> 50
	C=C1CCC=C(C)CC(O)C2=C(C(C)(C)O)CCC2(C)CC1 (stereo not shown) [Compound 14, clavudiol A]	25.4 ± 2.4	> 50
	C=C1CCC2OC2(C)CC(O)C2=C(C(C)(C)O)CCC2(C)CC1 (stereo not shown) [Compound 9, Clavularol E]	12.6 ± 2.6	> 50
23.4 ± 0.4	CC1=C2CC[C@@]3(C)CC[C@H](C)CC(=O)C[C@@H](C)C[C@@H](OC1=O)[C@H]23 [Compound 15, clavirolide C]	48.3 ± 3.6	> 50
	CC1=CC(OO)C2(C)CCC3=C(C)C(=O)OC(CC(C)CC(=O)C1)C32 (stereo not shown) [Compound 5, clavularol A]	26.8 ± 3.6	> 50

Structure (SMILES)	IC50 [1] [µM]	inhibition at 20 µM [1] [%]	CC50 at 50 h [2] [µM]
[H]/N=C(/NC)NCCC[C@H](N)C(=O)O [L-NMMA, L-NG-monomethyl arginine, reference compound]	17.8 ± 0.6	76.7 ± 4.2	

Source: article PMC12387469, “Dolabellane Diterpenoids from Soft Coral Clavularia viridis with Anti-Inflammatory Activities” (Marine Drugs, 2025)
